In one assay the target is T1, human p38 kinase alpha (Homo sapiens, UniProt Q16539).
T1 construct: GST (N, cleaved yes); made in house; host or cells: E. coli DH10B
Kind of assay: p38 kinase in vitro assay, phosphorylation of biotinylated PHAS-I with 32P-ATP. Format: biochemical. Particulars: for IC50: read-out: P38 alpha kinase IC50.

For assay [1], the system named is TNF-α, U937 human histiocytic lymphoma cell line. Briefly: LPS stimulation of TNF production by U937 cells. Format: cell-based. Particulars: for inhibition at 1 µM: U-937, @ 1.0 uM. The essentials: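 U937 cells differentiated 24 h with 20 ng/ml PMA, rested 24-48 h, used at 2 million cells/ml. Compounds in 0.1% DMSO final; LPS (E. coli, 100 ng/ml final) stimulation for 4 h at 37° C. Released TNF-α measured by ELISA; IC50 (μM).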

[2] abbreviates: in vitro P38-alpha kinase inhibition.
Setting [3] is: Homo sapiens, TNF production, U937 cells stimulated with LPS, read-out: U937 Cell % inhib @ conc.
[4] abbreviates: Homo sapiens, U-937, TNF production, human U937 cells stimulated with LPS, read-out: U937 Cell IC50.
Where [5] appears, read: Homo sapiens, TNF production, LPS-stimulated U937 cells, read-out: U937 Cell % inhib @ conc.

By IC50 is commonly meant the concentration at which inhibition is half-maximal.

Where two headings read alike, the source gives them in different places.

T1 sequence (Q16539 whole entry): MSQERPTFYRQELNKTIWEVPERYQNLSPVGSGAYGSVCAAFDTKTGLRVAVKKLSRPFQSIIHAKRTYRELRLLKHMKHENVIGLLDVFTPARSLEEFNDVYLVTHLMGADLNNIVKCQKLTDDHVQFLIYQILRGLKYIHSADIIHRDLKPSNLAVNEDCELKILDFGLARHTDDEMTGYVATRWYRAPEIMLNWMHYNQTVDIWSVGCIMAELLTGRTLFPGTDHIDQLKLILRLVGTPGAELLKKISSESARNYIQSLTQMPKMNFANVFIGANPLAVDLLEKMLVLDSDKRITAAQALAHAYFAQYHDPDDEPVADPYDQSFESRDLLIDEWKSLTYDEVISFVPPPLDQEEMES

Take `O=S(=O)(NCCc1[nH]nc(-c2ccc(F)cc2)c1-c1ccncc1)c1ccc(Cl)cc1Cl` [Example B-1076]: on human p38 kinase alpha (setting [2]), the IC50 was 0.08 µM. Moreover, in assay [1] (setting [3]), the inhibition at 1 µM is 31%.
Consider `CCNC(=O)N1CCC(c2[nH]nc(-c3ccc(F)cc3)c2-c2ccncc2)CC1` [Example B-1381], for which the values for the IC50 (at human p38 kinase alpha (in vitro P38-alpha kinase); in assay [1] (setting [4])) were 0.055 µM and 0.73 µM, respectively.
`O=C(NCCCc1[nH]nc(-c2ccc(F)cc2)c1-c1ccncc1)NCc1cccnc1` [Example B-1310]: the IC50 on human p38 kinase alpha (in vitro P38-alpha kinase) is 0.12 µM. Moreover, the inhibition at 1 µM in assay [1] (setting [5]) turned out to be 11%.
In the case of `COc1ccc(CC(=O)NC(Cc2ccccc2)c2[nH]nc(-c3ccc(F)cc3)c2-c2ccncc2)cc1OC` (stereo not shown) [Example B-0815], the IC50 at human p38 kinase alpha (setting [2]) is 2.11 µM; in assay [1] (setting [4]), > 1 µM.
In the case of `CNC(=O)CCC(NC(=O)Cc1cccc(OC)c1)c1[nH]nc(-c2ccc(F)cc2)c1-c1ccncc1` (stereo not shown) [Example B-0872], the IC50 at human p38 kinase alpha (setting [2]) was 3.13 µM. For the same compound, the inhibition at 1 µM in assay [1] (setting [3]) was 3%.
As to `Cc1ccc(S(=O)(=O)N2CCC(c3[nH]nc(-c4ccc(F)cc4)c3-c3ccncc3)CC2)cc1` [Example B-1473], the IC50 on human p38 kinase alpha (in vitro P38-alpha kinase) was determined as 1.24 µM. The inhibition at 1 µM in assay [1] (setting [5]) was determined as 14%.
With `O=S(=O)(c1c(F)cccc1F)N1CCC(c2[nH]nc(-c3ccc(F)cc3)c2-c2ccncc2)CC1` [Example B-1455], on human p38 kinase alpha (in vitro P38-alpha kinase), the half-inhibitory concentration (IC50) is 1.21 µM. The inhibition at 1 µM in assay [1] (setting [5]) turned out to be 8%.
As for `CN(C)c1cccc2c(S(=O)(=O)N3CCC(c4[nH]nc(-c5ccc(F)cc5)c4-c4ccncc4)CC3)cccc12` [Example B-1442], the IC50 at human p38 kinase alpha (in vitro P38-alpha kinase) was found to be 1.54 µM. In addition, the inhibition at 1 µM in assay [1] (setting [5]) came to 18%.
Consider `O=C(NCCc1[nH]nc(-c2ccc(F)cc2)c1-c1ccncc1)c1cc(F)cc(F)c1` [Example B-1130], for which the IC50 on human p38 kinase alpha (setting [2]) turned out to be 0.5 µM. Besides, in assay [1] (setting [3]), the inhibition at 1 µM was 29%.
For the compound `O=C(NCCCc1[nH]nc(-c2ccc(F)cc2)c1-c1ccncc1)NCCCn1ccnc1` [Example B-1297], the IC50 was 0.02 µM on human p38 kinase alpha (in vitro P38-alpha kinase) and > 1 µM in assay [1] (setting [4]).
Turning to `Cc1c(-c2ccncc2)c(-c2ccc(F)cc2)nn1CC(=O)Nc1ccc(S(=O)(=O)C(F)F)cc1` [Example B-2446], the “P38 alpha kinase IC50, uM or % inhib @ conc. (uM): % inhib” value on human p38 kinase alpha (@ 10.0 uM) is recorded as 90.0% @. Besides, in assay [1] (@ 10.0 uM, TNF production, U937 cells stimulated with LPS), the “U937 Cell IC50, uM or % inhib @ conc. (uM): % inhib” value was 28.0% @.
As to `COC(=O)[C@H](CSCc1ccccc1)NC(=O)Cn1nc(-c2ccc(F)cc2)c(-c2ccncc2)c1C` [Example B-2339], the “P38 alpha kinase % inhib @ conc.” value at human p38 kinase alpha (@ 10.0 uM) was determined as 84.0% @. In assay [1] (TNF production, human U937 cells stimulated with LPS, read-out: U937 Cell IC50), the IC50 is > 10 µM.
Turning to `CNC(=O)NC(Cc1ccccc1)c1[nH]nc(-c2ccc(F)cc2)c1-c1ccncc1` (stereo not shown) [Example B-0730], at human p38 kinase alpha (setting [2]), the half-inhibitory concentration (IC50) was 0.25 µM. In addition, the inhibition at 1 µM in assay [1] (Homo sapiens, TNF production in human U937 cells stimulated with LPS, read-out: U937 Cell % inhib @ conc.) was found to be 11%.
For `O=S(=O)(c1ccc(Cl)cc1)N1CCC(c2[nH]nc(-c3ccc(F)cc3)c2-c2ccncc2)CC1` [Example B-1471], the IC50 on human p38 kinase alpha (in vitro P38-alpha kinase) turned out to be 0.85 µM. The inhibition at 1 µM in assay [1] (setting [5]) came to 25%.
`CN(C(=O)NC(Cc1ccccc1)c1[nH]nc(-c2ccc(F)cc2)c1-c1ccncc1)c1ccccc1` (stereo not shown) [Example B-0731]: the IC50 on human p38 kinase alpha (setting [2]) was 0.87 µM; in assay [1] (Homo sapiens, U-937, TNF production in human U937 cells stimulated with LPS, read-out: U937 Cell IC50) it was > 1 µM.
For the compound `CCCNC(=O)Cn1nc(-c2ccc(F)cc2)c(-c2ccncc2)c1C` [Example B-2270], the IC50 on human p38 kinase alpha (in vitro P38-alpha kinase) was determined as 0.72 µM. The inhibition at 10 µM in assay [1] (Homo sapiens, U-937, @ 10.0 uM, TNF production, LPS-stimulated U937 cells, read-out: U937 Cell % inhib @ conc.) worked out at 31%.
`O=C(NC(Cc1ccccc1)c1[nH]nc(-c2ccc(F)cc2)c1-c1ccncc1)C1CCCC1` (stereo not shown) [Example B-0820]: the IC50 at human p38 kinase alpha (setting [2]) is 1.64 µM. In assay [1] (setting [3]), the inhibition at 1 µM is 3%.
Take `O=C(NCCCc1[nH]nc(-c2ccc(F)cc2)c1-c1ccncc1)NCCCN1CCCC1=O` [Example B-1319]: the IC50 on human p38 kinase alpha (in vitro P38-alpha kinase) is 0.24 µM; in assay [1] (setting [4]) it was > 1 µM.
For the compound `COc1ccc(CN(CCc2ccccc2)C(=O)Cn2nc(-c3ccc(F)cc3)c(-c3ccncc3)c2C)cc1` [Example B-2396], the “P38 alpha kinase IC50, uM or % inhib @ conc. (uM): % inhib” value at human p38 kinase alpha (@ 10.0 uM) is given as 75.0% @. Also, the IC50 in assay [1] (TNF production, U937 cells stimulated with LPS, read-out: U937 Cell IC50, uM or % inhib @ conc. (uM): IC50) is > 10 µM.
For the compound `O=C(NCCc1[nH]nc(-c2ccc(F)cc2)c1-c1ccncc1)c1ccccc1` [Example B-1003], on human p38 kinase alpha (@ 1.0 uM), the “P38 alpha kinase % inhib @ conc. (uM)” value was determined as 74.0% @. The “U937 Cell % inhib @ conc. (uM)” value in assay [1] (@ 1.0 uM, TNF production, U937 cells stimulated with LPS) came to 29.0% @.

For the origin of these results see patent publication US6979686B1, “Substituted pyrazoles as p38 kinase inhibitors” (Pharmacia Corporation, priority 2001, dated 2005).
